Assay results taken from patent US20230295152A1 (SENDA BIOSCIENCES, INC., priority 2019, published 2023).

Biological target: T1, AHR (Homo sapiens, UniProt P35869)
T1 construct: other cell line with a DRE-luciferase reporter stably transfected; endogenous in cells; host or cells: HepG2 AhR-Lucia reporter cells
T1 sequence (P35869 11-848): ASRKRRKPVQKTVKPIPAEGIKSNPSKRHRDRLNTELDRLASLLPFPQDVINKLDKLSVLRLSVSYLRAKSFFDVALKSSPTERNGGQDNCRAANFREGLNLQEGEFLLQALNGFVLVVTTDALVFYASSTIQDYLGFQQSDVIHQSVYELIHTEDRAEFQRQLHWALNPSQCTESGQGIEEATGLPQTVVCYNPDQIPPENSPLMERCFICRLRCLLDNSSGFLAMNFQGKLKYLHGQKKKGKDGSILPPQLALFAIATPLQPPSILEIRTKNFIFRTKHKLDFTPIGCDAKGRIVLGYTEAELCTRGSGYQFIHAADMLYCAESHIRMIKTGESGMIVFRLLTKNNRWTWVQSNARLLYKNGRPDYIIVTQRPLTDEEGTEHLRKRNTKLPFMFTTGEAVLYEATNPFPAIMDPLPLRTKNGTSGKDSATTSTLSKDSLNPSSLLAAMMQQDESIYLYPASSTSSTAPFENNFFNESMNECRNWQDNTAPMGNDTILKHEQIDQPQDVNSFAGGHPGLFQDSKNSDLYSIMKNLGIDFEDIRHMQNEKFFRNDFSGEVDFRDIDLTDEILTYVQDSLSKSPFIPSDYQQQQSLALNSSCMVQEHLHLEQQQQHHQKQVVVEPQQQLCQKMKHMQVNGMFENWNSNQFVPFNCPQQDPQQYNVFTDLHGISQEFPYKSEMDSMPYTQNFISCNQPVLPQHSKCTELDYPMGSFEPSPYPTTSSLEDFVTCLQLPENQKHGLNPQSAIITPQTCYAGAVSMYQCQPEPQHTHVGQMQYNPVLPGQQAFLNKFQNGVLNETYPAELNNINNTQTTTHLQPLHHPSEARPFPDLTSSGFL
Assay: DRE-Luciferase Reporter Assay, HepG2 AhR-Lucia reporter cells
Assay type: cell-based
Conditions: with AHR activating ligand at EC50, read-out: HepG2-Luc IC50
How it was run: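 DRE-luciferase reporter cells (e.g. HepG2 AhR-Lucia, 20000 cells) treated with antagonist log dilutions from 100 uM, then an AHR agonist (e.g. TCDD, kynurenine, ITE, FICZ) at its EC50 added after 1 hr. Secreted luciferase measured after 24 or 48 h (QUANTI-Luc); IC50 = concentration halving luciferase activity.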

Row | SMILES | IC50
1 | O=c1c2cc(-c3ccc(Cl)cc3)nc(-c3cccnc3)c2ncn1[C@@H]1COC[C@@H]1O (stereo in doubt) [Compound 71] | < 100 nM
2 | C[C@@H](CO)n1cnc2c(-c3cccnc3)nc(-c3ccc(C(F)(F)F)cc3)cc2c1=O [Compound 23] | < 100 nM
3 | C[C@@H](CO)n1cnc2c(-c3cnn(C)c3)nc(-c3ccc(OC(F)(F)F)cc3)cc2c1=O [Compound 25] | < 100 nM
4 | C[C@H](n1cnc2c(-c3cccnc3)nc(-c3cccnc3)cc2c1=O)C(C)(C)O [Compound 34] | < 100 nM
5 | C[C@@H](CO)n1cnc2c(-c3cccnc3)nc(-c3ccc(OC(F)(F)F)nc3)cc2c1=O [Compound 50] | < 100 nM
6 | CC(C)(O)Cn1cnc2c(-c3cn[nH]c3)nc(-c3ccc(C(F)(F)F)nc3)cc2c1=O [Compound 51] | < 100 nM
7 | CC(C)(O)Cn1cnc2c(-c3cnsc3)nc(-c3ccc(C(F)(F)F)nc3)cc2c1=O [Compound 54] | < 100 nM
8 | C[C@@H](CO)n1cnc2c(-c3cnsc3)nc(-c3ccc(C(F)(F)F)nc3)cc2c1=O [Compound 55] | < 100 nM
9 | O=c1c2cc(-c3ccc(C(F)(F)F)nc3)nc(-c3cccnc3)c2ncn1C[C@H](O)C(F)(F)F [Compound 57] | < 100 nM
10 | C[C@@H](CO)n1cnc2c(-c3cnsc3)nc(-c3ccc(Cl)cc3)cc2c1=O [Compound 58] | < 100 nM
11 | C[C@@H](CO)n1cnc2c(-c3cccnc3)nc(-c3cnc(C4CC4)s3)cc2c1=O [Compound 66] | < 100 nM

Next, values leading:

Row | IC50 | SMILES
12 | < 100 nM | CC(C)(O)Cn1cnc2c(-c3cccnc3)nc(-c3ccc(C4CC4)nc3)cc2c1=O [Compound 81]
13 | < 100 nM | Cn1cc(-c2nc(-c3ccc(C4CC4)nc3)cc3c(=O)n(CC(C)(C)O)cnc23)cn1 [Compound 82]
14 | < 100 nM | C[C@@H](CO)n1cnc2c(-c3cnn(C)c3)nc(-c3ccc(C4CC4)nc3)cc2c1=O [Compound 83]
15 | < 100 nM | C[C@@H](CO)n1cnc2c(-c3cccnc3)nc(-c3cnc(C(F)(F)F)s3)cc2c1=O [Compound 85]
16 | < 100 nM | C[C@@H](CO)n1cnc2c(-c3cccnc3)nc(-c3cnc(C(F)(F)F)nc3)cc2c1=O [Compound 86]
17 | < 100 nM | Cn1cc(-c2nc(-c3ccc(C(F)(F)F)nc3)cc3c(=O)n([C@H]4COC[C@H]4O)cnc23)cn1 [Compound 88]
18 | < 100 nM | Cc1ncc(-c2cc3c(=O)n([C@@H](C)CO)cnc3c(-c3cccnc3)n2)s1 [Compound 89]
19 | < 100 nM | Cn1cc(-c2nc(-c3ccc(Cl)cc3)cc3c(=O)n([C@H]4COC[C@H]4O)cnc23)cn1 [Compound 92]
20 | < 100 nM | C[C@@H](CO)n1cnc2c(-c3cnn(C)c3)nc(-c3cnc(C(F)(F)F)nc3)cc2c1=O [Compound 95]
21 | < 100 nM | Cn1cc(-c2nc(-c3cnc(C(F)(F)F)nc3)cc3c(=O)n(CC(C)(C)O)cnc23)cn1 [Compound 99]
22 | < 100 nM | CC(C)(O)Cn1cnc2c(-c3cnsc3)nc(-c3ccc(C(F)(F)F)cn3)cc2c1=O [Compound 101, 3-(2-hydroxy-2-methylpropyl)-8-(isothiazol-4-yl)-6-(5-(trifluoromethyl)pyridin-2-yl)pyrido[3,4-d]pyrimidin-4(3H)-one]
23 | < 100 nM | C[C@@H](CO)n1cnc2c(-c3cnsc3)nc(-c3ccc(C(F)(F)F)cn3)cc2c1=O [Compound 102, (S)-3-(1-hydroxypropan-2-y1)-8-(isothiazol-4-yl)-6-(5-(trifluoromethyl)pyridin-2-yl)pyrido[3,4-d]pyrimidin-4(3H)-one]
24 | < 100 nM | O=c1c2cc(-c3ccc(C(F)(F)F)cn3)nc(-c3cccnc3)c2ncn1C[C@H](O)C(F)(F)F [Compound 104, (S)-8-(pyridin-3-yl)-3-(3,3,3-trifluoro-2-hydroxypropyl)-6-(5-(trifluoromethyl)pyridin-2-yl)pyrido[3,4-d]pyrimidin-4(3H)-one]
25 | < 100 nM | C[C@H](O)Cn1cnc2c(-c3cnn(C)c3)nc(-c3ccc(C(F)(F)F)nc3)cc2c1=O [Compound 109, (S)-3-(2-hydroxypropyl)-8-(1-methyl-1H-pyrazol-4-yl)-6-(6-(trifluoromethyl)pyridin-3-yl)pyrido[3,4-d]pyrimidin-4(3H)-one]
